These results are taken from US20230348398A1 (Hoffmann-La Roche Inc., priority 2020, published 2023).

The target of this test is human cGAS (residues 161-522) (Homo sapiens (Human), UniProt Q8N884). The test is described as follows: Malachite Green assay to measure cGAS activity (coupled enzymatic assay, phosphate detection). The settings on record: recombinant human cGAS (residues 161-522) 25 nM, 80 μM GTP, 100 nM ISD, 4 hour at RT, absorbance 620 nm. In kind it is biochemical. As to the method: Malachite Green Assay to Measure cGAS Activity Compounds were tested for cGAS inhibition in a coupled enzymatic assay based on Phosphate detection by Malachite Green. Final assay conditions were 20 mM TRIS pH 7.5 (Applichem), 5 mM MgCl2 (Sigma) and 0.01% BSA (Sigma) supplemented with […] (Sigma), 80 μM GTP (Sigma) and 100 nM Interferon Stimulating DNA (ISD) (Microsynth). Recombinantly expressed purified human cGAS (residues 161-522) was used at 25 nM. All compounds were prepared as 10 mM stock solutions in DMSO and a 16 pt dilution series in DMSO with a dilution factor of 2.5 was prepared. 1 μL of DMSO dilution series was transferred to 32.3 μL reaction buffer, mixed by pipetting up/down, spun for 1 minute at 3000 rpm and was visually inspected for precipitation. 5 μL of 3-fold enzyme stock solution were transferred to an empty 384-well Black/Clear Flat Bottom Polystyrene NBS (Corning) rows 3-24. Rows 1-2 were filled with assay buffer. Plates were spun 10 seconds at 1000 rpm (164×g). 5 μL of compound intermediate dilution was added and mixed by pipetting up/down to rows 3-24. Rows 1-2 were filled with 3.1% DMSO assay buffer. Plates were spun 10 seconds at 1000 rpm (164×g). 5 μL 3-fold Nucleotide/DNA mix was added to all wells to start the reaction. Plates were spun 10 seconds at 1000 rpm (164×g) and incubated for 4 hour at room temperature (RT) in the dark. 5 μL 4 U/mL PPase (Sigma) were added to all wells. Plates spun 10 seconds at 1000 rpm (164×g). 10 μL BioMol green Solution (Enzo Life Sciences) was added to all wells. Plates spun 10 seconds at 1000 rpm (164×g) and incubated 30 minutes at RT in the dark. Absorbance data was collected 620 nm on an EnVision Multilable Reader (Perkin Elmer) and the following measurement settings were used: excitation filter photometric was 620 nm; excitation from the top; measurement height was 1 mm; number of flashes was 30; number of flashes integrated was 1. All plates are checked for abnormalities and outliers in the Blank Control (no protein, row 1) and the Neutral Control (no compound, row 2) are excluded using the 3*SD rule. Data was normalized to 0 and 100% by Blank and Neutral Control and each curve was fitted and judged using the 4 parameter logistic equation to determine the IC50 for cGAS inhibition. Table 1 provides IC50 values (μM) for cGAS inhibition obtained for particular examples of the present invention as measured by the above-described assay.
Chain of human cGAS (residues 161-522) (Q8N884 161-522): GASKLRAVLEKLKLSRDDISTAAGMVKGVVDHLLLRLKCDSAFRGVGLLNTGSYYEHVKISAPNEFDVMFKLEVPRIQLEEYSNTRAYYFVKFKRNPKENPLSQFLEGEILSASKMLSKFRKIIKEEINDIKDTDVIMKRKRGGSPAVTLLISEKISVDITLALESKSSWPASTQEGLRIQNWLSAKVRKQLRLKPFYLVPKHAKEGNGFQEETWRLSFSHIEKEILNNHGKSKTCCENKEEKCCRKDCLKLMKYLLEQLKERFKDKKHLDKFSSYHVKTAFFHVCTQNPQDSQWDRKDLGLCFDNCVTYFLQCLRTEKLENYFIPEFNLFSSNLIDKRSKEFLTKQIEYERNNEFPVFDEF
With `Cc1ccc(-c2cc(C(=O)O)c3nc(CN4CCNC(C(F)(F)F)C4)[nH]c3c2)c(Cl)c1` (stereo not shown) [Example 11, 6-(2-Chloro-4-methylphenyl)-2-[[3-(trifluoromethyl)piperazin-1-yl]methyl]-1H-benzimidazole-4-carboxylic acid], the IC50 (commonly the concentration that gives 50% inhibition) worked out at 600 nM.
Consider `Cc1ccc(-c2cc(C(=O)O)c3nc(CN4CCN(C)CC4)[nH]c3c2)c(Cl)c1` [Example 22, 6-(2-Chloro-4-methylphenyl)-2-[(4-methylpiperazin-1-yl)methyl]-1-benzimidazole-4-carboxylic acid], for which the half-inhibitory concentration (IC50) came out at 130 nM.
With `CCN(CC)Cc1nc2c(C(=O)O)cc(-c3ccc(C)cc3Cl)cc2[nH]1` [Example 23, 6-(2-Chloro-4-methylphenyl)-2-(diethylaminomethyl)-1-benzimidazole-4-carboxylic acid], the IC50 is 480 nM.
As for `Cc1ccc(-c2cc(C(=O)O)c3nc(CN4CCN(C)CC4=O)[nH]c3c2)c(Cl)c1` [Example 12, 6-(2-Chloro-4-methylphenyl)-2-[(4-methyl-2-oxopiperazin-1-yl)methyl]-1H-benzimidazole-4-carboxylic acid], the figure is 1140 nM; as for `Cc1ccc(-c2cc(C(=O)O)c3nc(CO)[nH]c3c2)c(Cl)c1` [Example 13, 6-(2-Chloro-4-methylphenyl)-2-(hydroxymethyl)-1H-benzimidazole-4-carboxylic acid], 550 nM.
As for `Cc1cc(Cl)c(-c2cc(C(=O)O)c3nc[nH]c3c2)cc1F` [Example 2, 6-(2-Chloro-5-fluoro-4-methylphenyl)-1H-benzo[d]imidazole-4-carboxylic acid], the figure is 540 nM; as for `Cc1ccc(-c2cc(C(=O)O)c3nc(CN4CCN(Cc5ccccc5)CC4)[nH]c3c2)c(Cl)c1` [Example 18, 2-[(4-Benzylpiperazin-1-yl)methyl]-6-(2-chloro-4-methylphenyl)-1H-benzimidazole-4-carboxylic acid], 140 nM.
Next, `Cc1ccc(-c2cc(C(=O)O)c3nc(CN4CCN(CC(F)(F)F)CC4)[nH]c3c2)c(Cl)c1` [Example 8, 6-(2-Chloro-4-methylphenyl)-2-((4-(2,2,2-trifluoroethyl)piperazin-1-yl)methyl)-1H-benzo[d]imidazole-4-carboxylic acid]: 590 nM; `O=C(O)c1cc(-c2ccc(C3CC3)cc2Cl)cc2[nH]cnc12` [Example 1, 6-(2-Chloro-4-cyclopropylphenyl)-1-benzimidazole-4-carboxylic acid]: 4680 nM.
For `CC(=O)N1CCN(Cc2nc3c(C(=O)O)cc(-c4ccc(C)cc4Cl)cc3[nH]2)CC1` [Example 16, 2-[(4-Acetylpiperazin-1-yl)methyl]-6-(2-chloro-4-methylphenyl)-1H-benzimidazole-4-carboxylic acid], the half-inhibitory concentration (IC50) amounted to 1510 nM.
`Cc1ccc(-c2cc(C(=O)O)c3nc[nH]c3c2)c(Cl)c1` [Example 3, 6-(2-Chloro-4-methylphenyl)-1H-benzo[d]imidazole-4-carboxylic acid]: the IC50 was 550 nM.
In the case of `Cc1ccc(-c2cc(C(=O)O)c3nc(C)[nH]c3c2)c(Cl)c1` [Example 32], the IC50 is 2410 nM.
As for `Cc1ccc(-c2cc(C(=O)O)c3nc(CN4CCN5C(=O)CCC5C4)[nH]c3c2)c(Cl)c1` (stereo not shown) [Example 7, 6-(2-Chloro-4-methylphenyl)-2-[(6-oxo-1,3,4,7,8,8a-hexahydropyrrolo[1,2-a]pyrazin-2-yl)methyl]-1H-benzimidazole-4-carboxylic acid], the figure is 260 nM; as for `Cc1ccc(-c2cc(C(=O)O)c3nc(CN4CCN(C5CC5)CC4)[nH]c3c2)c(Cl)c1` [Example 9, 6-(2-Chloro-4-methylphenyl)-2-[(4-cyclopropylpiperazin-1-yl)methyl]-1H-benzimidazole-4-carboxylic acid], 380 nM.
As for `Cc1cc(Cl)ccc1-c1cc(C(=O)O)c2nc[nH]c2c1` [Example 6, 6-(4-Chloro-2-methylphenyl)-1H-benzo[d]imidazole-4-carboxylic acid], the figure is 2080 nM; as for `Cc1ccc(-c2cc(C(=O)O)c3nc(CN4CCOCC4)[nH]c3c2)c(Cl)c1` [Example 28, 6-(2-Chloro-4-methylphenyl)-2-(morpholin-4-ylmethyl)-1H-benzimidazole-4-carboxylic acid], 350 nM.
As for `Cc1ccc(-c2cc(C(=O)O)c3nc(CN4CCC(O)CC4)[nH]c3c2)c(Cl)c1` [Example 21, 6-(2-Chloro-4-methylphenyl)-2-[(4-hydroxypiperidin-1-yl)methyl]-1H-benzimidazole-4-carboxylic acid], the figure is 410 nM.
For `Cc1ccc(-c2cc(C(=O)O)c3nc(CN(C)C)[nH]c3c2)c(Cl)c1` [Example 29, 6-(2-Chloro-4-methylphenyl)-2-[(dimethylamino)methyl]-1H-benzimidazole-4-carboxylic acid], the IC50 is 590 nM.
Next, `Cc1ccc(-c2cc(C(=O)O)c3nc(CN4CCNC(=O)C4)[nH]c3c2)c(Cl)c1` [Example 20, 6-(2-Chloro-4-methylphenyl)-2-[(3-oxopiperazin-1-yl)methyl]-1H-benzimidazole-4-carboxylic acid]: 590 nM; `CCOc1ccc(-c2cc(C(=O)O)c3nc[nH]c3c2)c(Cl)c1` [Example 4, 6-(2-Chloro-4-ethoxyphenyl)-1H-benzo[d]imidazole-4-carboxylic acid]: 4370 nM.
As for `Cc1ccc(-c2cc(C(=O)O)c3nc(Cc4ccccc4)[nH]c3c2)c(Cl)c1` [Example 26, 2-Benzyl-6-(2-chloro-4-methylphenyl)-1H-benzo[d]imidazole-4-carboxylic acid], the IC50 amounted to 1020 nM.
Regarding `Cc1ccc(-c2cc(C(=O)O)c3nc(CN4CCN(c5ccccc5)CC4)[nH]c3c2)c(Cl)c1` [Example 19, 6-(2-Chloro-4-methylphenyl)-2-[(4-phenylpiperazin-1-yl)methyl]-1H-benzimidazole-4-carboxylic acid], the IC50 turned out to be 1250 nM.
Next, `Cc1ccc(-c2cc(C(=O)O)c3nc(C(F)(F)F)[nH]c3c2)c(Cl)c1` [Example 30, 6-(2-Chloro-4-methylphenyl)-2-(trifluoromethyl)-1H-benzimidazole-4-carboxylic acid]: 3020 nM; `Cc1ccc(-c2cc(C(=O)O)c3nc(CN(C)c4ccccc4)[nH]c3c2)c(Cl)c1` [Example 17, 6-(2-Chloro-4-methylphenyl)-2-[(N-methylanilino)methyl]-1H-benzimidazole-4-carboxylic acid]: 1230 nM.
As for `Cc1ccc(-c2cc(C(=O)O)c3nc(Cc4ccc(Cl)cc4)[nH]c3c2)c(Cl)c1` [Example 27, 6-(2-Chloro-4-methylphenyl)-2-[(4-chlorophenyl)methyl]-1H-benzimidazole-4-carboxylic acid], the figure is 1480 nM; as for `Cc1ccc(-c2cc(C(=O)O)c3nc(CN4CCCCC4)[nH]c3c2)c(Cl)c1` [Example 24, 6-(2-Chloro-4-methylphenyl)-2-(piperidin-1-ylmethyl)-1H-benzimidazole-4-carboxylic acid], 360 nM.
Next, `Cc1ccc(-c2cc(C(=O)O)c3nc(CNc4ccccc4)[nH]c3c2)c(Cl)c1` [Example 25, 2-(Anilinomethyl)-6-(2-chloro-4-methylphenyl)-1H-benzimidazole-4-carboxylic acid]: 690 nM; `Cc1ccc(-c2cc(C(=O)O)c3nc(Nc4ccccc4)[nH]c3c2)c(Cl)c1` [Example 14, 6-(2-Chloro-4-methylphenyl)-2-(phenylamino)-1H-benzo[d]imidazole-4-carboxylic acid]: 1160 nM; `Cc1ccc(-c2cc(C(=O)O)c3nc(NCc4ccccc4)[nH]c3c2)c(Cl)c1` [Example 31, 2-(Benzylamino)-6-(2-chloro-4-methylphenyl)-1H-benzo[d]imidazole-4-carboxylic acid]: 840 nM.
With `Cc1ccc(-c2cc(C(=O)O)c3nc(CN4CCN(Cc5ccccc5)C(=O)C4)[nH]c3c2)c(Cl)c1` [Example 10, 2-[(4-Benzyl-3-oxopiperazin-1-yl)methyl]-6-(2-chloro-4-methylphenyl)-1H-benzimidazole-4-carboxylic acid], the IC50 was 510 nM.
Next, `Cc1ccc(-c2cc(C(=O)O)c3nc(CN4CCC(F)(F)CC4)[nH]c3c2)c(Cl)c1` [Example 15, 6-(2-Chloro-4-methylphenyl)-2-[(4,4-difluoropiperidin-1-yl)methyl]-1H-benzimidazole-4-carboxylic acid]: 260 nM.
